Assay results from patent publication US10961200B2, “Small molecule inhibitors of lactate dehydrogenase and methods of use thereof” (THE UNITED STATES OF AMERICA, AS REPRESENTED BY THE …, priority 2014, dated 2021).
Read-outs that look alike come from different tables or passages of the source.

Biological target: Human LDHA (Homo sapiens (Human), UniProt P00338)
Test: human LDHA primary biochemical assay (resazurin/diaphorase coupled, fluorescence)
Description: Test compounds were placed in a Greiner Bio-One (Monroe, N.C.) 1536-well black solid bottom assay plate. 200 millimolar (mM) Tris HCl, pH 7.4, 100 micromolar […] EDTA and 0.01% TWEEN-20™, final concentration, was used as the assay buffer. The LDHA reagent was 2 nanomolar (nM) Human LDHA (Meridian Life Science, Inc., Memphis, Tenn.), final concentration, in assay buffer.

[1] = LDHA inhibitory activity, assay of Example 1, activity level classes
[2] = read-out: Inhibitory activity IC50

| Structure (SMILES) | IC50 [1] [nM] | IC50 [2] [nM] |
| --- | --- | --- |
| NS(=O)(=O)c1ccc(Cc2c(C3CC3)nn(-c3nc(C(=O)O)cs3)c2-c2cccc(-c3ccccc3)c2)c(F)c1 [Compound 182] | – | 1000 to 57000 |
| NS(=O)(=O)c1ccc(Oc2c(C3CC3)nn(-c3nc(C(=O)O)cs3)c2-c2cccc(-c3ccccc3)c2)cc1 [Compound 186, 2-(5-([1,1′-biphenyl]-3-yl)-3-cyclopropyl-4-(4-sulfamoylphenoxy)-1H-pyrazol-1-yl)thiazole-4-carboxylic acid] | – | 1000 to 57000 |
| NS(=O)(=O)c1ccc(Cc2cn(-c3nc(C(=O)O)cs3)c3cc(CN4CCOCC4)ccc23)cc1 [Compound 192, 2-(6-(morpholinomethyl)-3-(4-sulfamoylbenzyl)-1H-indol-1-yl)thiazole-4-carboxylic acid] | – | 100 to 1000 |
| NS(=O)(=O)c1ccc(Cc2cn(-c3nc(C(=O)O)cs3)c3cccc(CN4CCOCC4)c23)cc1 [Compound 193, 2-(4-(morpholinomethyl)-3-(4-sulfamoylbenzyl)-1H-indol-1-yl)thiazole-4-carboxylic acid] | – | 100 to 1000 |
| NS(=O)(=O)c1ccc(Cc2cn(-c3nc(C(=O)O)cs3)c3cc(C(F)(F)F)ccc23)cc1 [Compound 197, 2-(3-(4-sulfamoylbenzyl)-6-(trifluoromethyl)-1H-indol-1-yl)thiazole-4-carboxylic acid] | – | 100 to 1000 |
| NS(=O)(=O)c1ccc(Cc2cn(-c3nc(C(=O)O)cs3)c3cc(CO)ccc23)cc1 [Compound 201, 2-(6-(hydroxymethyl)-3-(4-sulfamoylbenzyl)-1H-indol-1-yl)thiazole-4-carboxylic acid] | – | 100 to 1000 |
| NS(=O)(=O)c1ccc(Cc2cn(-c3nc(C(=O)O)cs3)c3c(F)cccc23)cc1 [Compound 202, 2-(7-fluoro-3-(4-sulfamoylbenzyl)-1H-indol-1-yl)thiazole-4-carboxylic acid] | – | 100 to 1000 |
| NS(=O)(=O)c1ccc(Cc2c(CC3CC3(F)F)nn(-c3nc(C(=O)O)cs3)c2-c2cccc(-c3ccccc3)c2)cc1 (stereo not drawn) [Compound 208, 2-(5-([1,1′-biphenyl]-3-yl)-5-((2,2-difluorocyclopropyl)methyl)-4-(4-sulfamoylbenzyl)-1H-pyrazol-1-yl)thiazole-4-carboxylic acid] | – | 1000 to 57000 |
| Cc1noc(C)c1-c1cc(-c2c(Cc3ccc(S(N)(=O)=O)cc3F)c(CC3CC3)nn2-c2nc(C(=O)O)cs2)ccc1F [Compound 216, 2-(3-(cyclopropylmethyl)-5-(3-(3,5-dimethylisoxazol-4-yl)-4-fluorophenyl)-4-(2-fluoro-4-sulfamoylbenzyl)-1H-pyrazol-1-yl)thiazole-4-carboxylic acid] | – | > 57000 |
| Cn1cc(-c2cc(-c3c(Cc4ccc(S(N)(=O)=O)c(F)c4)c(CC4CC4)nn3-c3nc(C(=O)O)cs3)ccc2F)cn1 [Compound 218, 2-(3-(cyclopropylmethyl)-5-(4-fluoro-3-(1-methyl-1H-pyrazol-4-yl)phenyl)-4-(3-fluoro-4-sulfamoylbenzyl)-1H-pyrazol-1-yl)thiazole-4-carboxylic acid] | – | > 57000 |
| Cc1noc(C)c1-c1cc(-c2c(Cc3ccc(S(N)(=O)=O)c(F)c3)c(CC3CC3)nn2-c2nc(C(=O)O)cs2)ccc1F [Compound 220, 2-(3-(cyclopropylmethyl)-5-(3-(3,5-dimethylisoxazol-4-yl)-4-fluorophenyl)-4-(3-fluoro-4-sulfamoylbenzyl)-1H-pyrazol-1-yl)thiazole-4-carboxylic acid] | – | > 57000 |
| Cc1csc(-c2cc(-c3c(Cc4ccc(S(N)(=O)=O)cc4F)c(CC4CC4)nn3-c3nc(C(=O)O)cs3)ccc2F)c1 [Compound 222, 2-(3-(cyclopropylmethyl)-5-(4-fluoro-3-(4-methylthiophen-2-yl)phenyl)-4-(2-fluoro-4-sulfamoylbenzyl)-1H-pyrazol-1-yl)thiazole-4-carboxylic acid] | – | > 57000 |
| Cc1csc(-c2cc(-c3c(Cc4ccc(S(N)(=O)=O)c(F)c4)c(CC4CC4)nn3-c3nc(C(=O)O)cs3)ccc2F)c1 [Compound 224, 2-(3-(cyclopropylmethyl)-5-(4-fluoro-3-(4-methylthiophen-2-yl)phenyl)-4-(3-fluoro-4-sulfamoylbenzyl)-1H-pyrazol-1-yl)thiazole-4-carboxylic acid] | – | > 57000 |
| Cc1ccc(-c2cc(-c3c(Cc4ccc(S(N)(=O)=O)cc4F)c(CC4CC4)nn3-c3nc(C(=O)O)cs3)ccc2F)s1 [Compound 226, 2-(3-(cyclopropylmethyl)-5-(4-fluoro-3-(5-methylthiophen-2-yl)phenyl)-4-(2-fluoro-4-sulfamoylbenzyl)-1H-pyrazol-1-yl)thiazole-4-carboxylic acid] | – | > 57000 |
| Cc1ccc(-c2cc(-c3c(Cc4ccc(S(N)(=O)=O)c(F)c4)c(CC4CC4)nn3-c3nc(C(=O)O)cs3)ccc2F)s1 [Compound 228, 2-(3-(cyclopropylmethyl)-5-(4-fluoro-3-(5-methylthiophen-2-yl)phenyl)-4-(3-fluoro-4-sulfamoylbenzyl)-1H-pyrazol-1-yl)thiazole-4-carboxylic acid] | – | > 57000 |
| NS(=O)(=O)c1ccc(Cc2cn(-c3nc(Br)cs3)nc2-c2ccccc2)cc1 [Compound 235] | 1000 to 57000 | – |

The remaining lines, values ahead:

| IC50 [1] [nM] | IC50 [2] [nM] | Structure (SMILES) |
| --- | --- | --- |
| > 57000 | – | CCOC(=O)c1csc(-n2nc(C3CC3)c(Cc3ccc(S(N)(=O)=O)cc3)c2-c2cccc(-c3ccccc3)c2)n1 [Compound 180, ethyl 2-(5-([1,1′-biphenyl]-3-yl)-3-cyclopropyl-4-(4-sulfamoylbenzyl)-1H-pyrazol-1-yl)thiazole-4-carboxylate] |
| > 57000 | – | CCOC(=O)c1csc(-n2nc(-c3cccc(-c4ccccc4)c3)c(Cc3ccc(S(N)(=O)=O)cc3)c2C2CC2)n1 [Compound 181, ethyl 2-(3-([1,1′-biphenyl]-3-yl)-5-cyclopropyl-4-(4-sulfamoylbenzyl)-1H-pyrazol-1-yl)thiazole-4-carboxylate] |
| – | 1000 to 57000 | NS(=O)(=O)c1ccc(Cc2c(C3CC3)nn(-c3nc(C(=O)O)cs3)c2-c2cccc(-c3ccccc3)c2)cc1 [Compound 184, 2-(5-([1,1′-biphenyl]-3-yl)-3-cyclopropyl-4-(4-sulfamoylbenzyl)-1H-pyrazol-1-yl)thiazole-4-carboxylic acid] |
| – | 100 to 1000 | NS(=O)(=O)c1ccc(Cc2c(-c3ccccc3)nn(-c3nc(C(=O)O)cs3)c2Cc2ccccc2)cc1 [Compound 185, 2-(5-benzyl-3-phenyl-4-(4-sulfamoylbenzyl)-1H-pyrazol-1-yl)thiazole-4-carboxylic acid] |
| – | 100 to 1000 | NS(=O)(=O)c1ccc(Cc2c(CC3CC3)nn(-c3nc(C(=O)O)cs3)c2-c2ccccc2)cc1 [Compound 188, 2-(3-(cyclopropylmethyl)-5-phenyl-4-(4-sulfamoylbenzyl)-1H-pyrazol-1-yl)thiazole-4-carboxylic acid] |
| > 57000 | – | COC(=O)c1cnc(-n2nc(-c3ccccc3)c(Cc3ccc(S(N)(=O)=O)cc3)c2N)nc1C(F)(F)F [Compound 190, methyl 2-(5-amino-3-phenyl-4-(4-sulfamoylbenzyl)-1H-pyrazol-1-yl)-4-(trifluoromethyl)pyrimidine-5-carboxylate] |
| > 57000 | – | Nc1c(Cc2ccc(S(N)(=O)=O)cc2)c(-c2ccccc2)nn1-c1ccc(C(=O)O)nn1 [Compound 191, 6-(5-amino-3-phenyl-4-(4-sulfamoylbenzyl)-1H-pyrazol-1-yl)pyridazine-3-carboxylic acid] |
| – | 100 to 1000 | NS(=O)(=O)c1ccc(Cc2cn(-c3nc(C(=O)O)cs3)c3ccc(Cc4ccccc4F)cc23)cc1 [Compound 194, 2-(5-(2-fluorobenzyl)-3-(4-sulfamoylbenzyl)-1H-indol-1-yl)thiazole-4-carboxylic acid] |
| < 100 | – | NS(=O)(=O)c1ccc(Cc2cn(-c3nc(C(=O)O)cs3)c3ccc(-c4ccccc4F)cc23)cc1 [Compound 195, 2-(5-(2-fluorophenyl)-3-(4-sulfamoylbenzyl)-1H-indol-1-yl)thiazole-4-carboxylic acid] |
| – | 100 to 1000 | NS(=O)(=O)c1ccc(Cc2cn(-c3nc(C(=O)O)cs3)c3ccccc23)cc1 [Compound 196, 2-(3-(4-sulfamoylbenzyl)-1H-indol-1-yl)thiazole-4-carboxylic acid] |
| – | 100 to 1000 | NS(=O)(=O)c1ccc(Cc2cn(-c3nc(C(=O)O)cs3)c3cccc(Cc4ccccc4F)c23)cc1 [Compound 198, 2-(4-(2-fluorobenzyl)-3-(4-sulfamoylbenzyl)-1H-indol-1-yl)thiazole-4-carboxylic acid] |
| > 57000 | – | O=C(O)c1csc(-n2cc(Cc3ccc(CO)cc3)c(-c3ccccc3)n2)n1 [Compound 199, 2-(4-(4-(hydroxymethyl)benzyl)-3-phenyl-1H-pyrazol-1-yl)thiazole-4-carboxylic acid] |
| – | 1000 to 57000 | O=C(O)c1csc(-n2cc(Cc3ccc(CO)cc3)c(-c3cccc(-c4ccccc4)c3)n2)n1 [Compound 200, 2-(3-([1,1′-biphenyl]-3-yl)-4-(4-(hydroxymethyl)benzyl)-1H-pyrazol-1-yl)thiazole-4-carboxylic acid] |
| – | 1000 to 57000 | NS(=O)(=O)c1ccc(Cc2c(CCC3CC3)nn(-c3nc(C(=O)O)cs3)c2-c2cccc(-c3ccccc3)c2)cc1 [Compound 204, 2-(5-([1,1′-biphenyl]-3-yl)-3-(2-cyclopropylethyl)-4-(4-sulfamoylbenzyl)-1H-pyrazol-1-yl)thiazole-4-carboxylic acid] |
| < 100 | – | NS(=O)(=O)c1ccc(Cc2c(-c3cccc(-c4ccccc4)c3)nn(-c3nc(C(=O)O)cs3)c2C2CC2(F)F)cc1 (stereo not drawn) [Compound 205, 2-(3-([1,1′-biphenyl]-difluorocyclopropyl)-4-(4-sulfamoylbenzyl)-1H-pyrazol-1-yl)thiazole-4-carboxylic acid] |
| > 57000 | – | NS(=O)(=O)c1ccc(Cc2cn(-c3csc4c(=O)[nH]cnc34)nc2-c2ccccc2)cc1 [Compound 210, 4-((1-(4-oxo-3,4-dihydrothieno[3,2-d]pyrimidin-7-yl)-3-phenyl-1H-pyrazol-4-yl)methyl)benzenesulfonamide] |
| – | 1000 to 57000 | Nc1ncnc2c(-n3cc(Cc4ccc(S(N)(=O)=O)cc4)c(-c4ccccc4)n3)csc12 [Compound 211, 4-((1-(4-aminothieno[3,2-d]pyrimidin-7-yl)-3-phenyl-1H-pyrazol-4-yl)methyl)benzenesulfonamide] |
